Measured values taken from paper PMC5150241, “Antimicrobial mechanism of theaflavins: They target 1-deoxy-D-xylulose 5-phosphate reductoisomerase, the key enzyme of the MEP terpenoid biosynthetic pathway” (Scientific Reports, 2016).
Read-outs that look alike come from different tables or passages of the source.

What was measured:
E. coli DXR [1] = molecular target: T1, E. coli DXR (Escherichia coli, UniProt P45568); assay: DXR inhibition assay, pre-column derivatization HPLC method; type: biochemical; conditions: for Inhibition (%) Triton, lower concentration / Inhibition (%) Triton, higher concentration: 0.01% Triton X-100; for Inhibition (%) Triton, lower concentration / Inhibition (%) No Triton, lower concentration: conc: TF 150, TF3G 30, TF3′G 20, TF3,3′G 15, baicalein 50 μM; for Inhibition (%) Triton, higher concentration / Inhibition (%) No Triton, higher concentration: conc: TF 250, TF3G 50, TF3′G 40, TF3,3′G 30, baicalein 100 μM; for IC50: 2 mM VC, 0.5 mM NADPH, 1 mM DXP, 37 °C, 30 min, read-out: IC50 against DXR; for Inhibition (%) No Triton, lower concentration / Inhibition (%) No Triton, higher concentration: no Triton X-100
T1 construct: made in house
Procedure: Then, we evaluated the DXR inhibitory activity of all four theaflavins at a final concentration of approximately 150 μM, employing 2% DMSO as a co-solvent and VC as a protective agent. […] Encouraged by these experiments, we further determined the DXR inhibitory effects of the theaflavins at different concentrations.
We therefore determined the DXR inhibitory activity of the theaflavins using 0.01% Triton X-100 as a surfactant to verify whether the theaflavins were aggregating inhibitors of DXR. Exactly the same procedure as described in the experimental part was followed to carry out the measurements. […] Then, we set two distinct concentrations for each of the theaflavins to evaluate its inhibition against DXR, one was close to its IC50 value and the other was about twice of it.
The inhibitory activity of the theaflavins and baicalein against E. coli DXR was determined using the pre-column derivatization HPLC method published by this group with minor modifications[29]. The assay mixture consists of 50 mM Tris-HCl (pH 7.4), 5 mM MgCl2, 2 mM VC, 0.5 mM NADPH, 2% (W/V) DMSO or 0.01% Triton X-100, and 4 μg/mL DXR in a final volume of 100 μL. The theaflavin compounds or baicalein were added to the mixtures separately before the addition of DXP (final conc. 1 mM) to start the reaction. […] The reaction mixture was incubated at 37 °C for 30 min before the DXR was inactivated by boiling for 3 minutes. Subsequently, 10 μL AP buffer (1 M Tris-HCl, 1 M NaCl2 50 mM MgCl2, pH 9.5) and 2 U AP were added, and the mixture was incubated at 37 °C for 120 min. 10 μL DNPH (120 mM in 30% perchloric acid, V/V) and 280 μL methanol were supplemented. After incubated at 37 °C for another 45 min, the mixture was centrifuged at 6000 rpm for 3 min and the supernatant was used for HPLC analysis on the Agilent 1200 HPLC system. HPLC conditions: Column, Shim-pack VP-ODS column (250 × 4.6 mm, 4.6 μm). Injection volume: 60 μL. Gradient: 0 min, 40% acetonitrile; 17 min, 80% acetonitrile; 18–20 min, 40% acetonitrile. Detection wavelength: 360 nm. Flow rate: 0.7 mL/min. Column temperature: 30 °C.

[2] = Particle size analysis by dynamic light scattering (DLS); type: physicochemical; conditions: 50 mM Tris-HCl pH 7.4, 2 mM VC, 2% DMSO; for DLS Count Rate, with 4 μg/mL DXR / DLS Count Rate, without DXR: conc: TF 500, TF3G 100, TF3′G 100, TF3,3′G 70, baicalein 200 μM
Procedure: DLS is a widely utilized technique in materials science to measure particle sizes in solutions[20][21]. […] Baicalein was referenced as a positive control owing to the same reason as mentioned above. The particle size evaluation was performed by a DLS analyzer and the results display that except for baicalein, the theaflavins produce no detectable particles.
The particle size of the theaflavin compounds and baicalein in Tris-HCl buffer (50 mM, pH 7.4) containing 2 mM VC and 2.0% DMSO (V/V) was measured in the absence and presence of DXR (final concentration: 4 μg/mL) on a DLS analyzer (NICOMP-380, Particle Sizing Systems, Inc., Santa Barbara, Calif., USA). The detector time was set to 10 min. […] A solution of 2.0% aqueous DMSO was used as a reference.

[3] = Stability of the theaflavins under the DXR assay conditions (HPLC); type: physicochemical; conditions: 100 μM before incubation, 50 mM Tris-HCl pH 7.4, 37 °C, 35 min; for Concentration after incubation in the absence of 2 mM VC: no VC
Procedure: The theaflavins are unstable compounds, especially under a basic condition. Because the DXR inhibition assay needs to be carried out in 50 mM Tris-HCl buffer at pH 7.4 and incubated at 37 °C for 30 min, we have to test whether the theaflavins can survive the assay condition, although it is almost neutral. The compounds were actually incubated at 37 °C for 35 min, 5 min longer than that of the real DXR assay. The results, as depicted in Table 1, indicate that almost half of the theaflavins decomposed after incubation. That is to say that these compounds are unstable even under the weak basic condition. […] Thus VC (2 mM) was used to protect the theaflavins in the following assays.
Stability of the theaflavins in Tris-HCl buffer was evaluated using an Agilent 1200 HPLC equipped with a DAD detector. The theaflavins were separately diluted into 50 mM Tris-HCl buffer (pH 7.4) containing 5 mM MgCl2 and 2% (W/V) DMSO to a final concentration of 100 μM in the absence and presence of 2 mM VC. The mixtures were subsequently incubated at 37 °C for 35 min before they were centrifuged at 6000 rpm for 3 min and analyzed. HPLC conditions: Column, Shim-pack VP-ODS column (250 × 4.6 mm, 4.6 μm). Detection wavelength: 280 nm. Injection volume: 20 μL. The mobile phase consists of 60% solvent A [2% acetic acid in water (v/v)] and 40% solvent B (acetonitrile). Flow rate: 0.7 mL/min. Column temperature: 25 °C. […]
1. Stability of the theaflavins under the DXR assay conditions
In order to evaluate the stability of the theaflavins under the DXR assay conditions, each compound was diluted into 50 mM Tris-HCl buffer (pH 7.4) and incubated at 37 °C for 35 min in the absence and presence of 2 mM VC before they were determined by HPLC. The HPLC profiles were listed in Fig. S1. From the figure we are able to see that in the presence of 2 mM VC, the four theaflavin compounds are stable because the peak area of each compound remains almost unchanged after incubation (B). But they are unstable in the absence of VC because the peak areas of all four […]
(1 picture or pasted object on this page, not shown here)
Figure S1. The stabilitiy of the theaflavin compounds under DXR assay conditions. A. Mixtures of VC and individual theaflavins in 50 mM Tris-HCl buffer (pH 7.4) before incubation; B. Mixtures of VC and individual theaflavins in same buffer after incubated at 37 °C for 35 min; C. Individual theaflavins in same buffer after incubated at 37 °C for 35 min. In A and B. Line 1, TF (100 μM) plus VC (2 mM); Line 2, TF3G (100μM) plus VC (2 mM); Line 3, TF3’G (100μM) plus VC (2 mM); Line 4, TF3,3’G (100μM) plus VC (2 mM). In C. Line 1, TF (100 μM); Line 2, TF3G (100μM); Line 3, TF3’G (100μM); Line 4, TF3,3’G (100μM). HPLC conditions:
Column, Shim-pack VP-ODS column (250 × 4.6 mm, 4.6μm). Detection wavelength: 280 nm. The mobile phase consisted of 60% solvent A [2% acetic acid in water (v/v)] and 40% solvent B (acetonitrile). Flow rate:
0.7 mL/min. Column temperature: 25 °C. […]

E. coli DXR [4] = molecular target: T1, E. coli DXR; assay: Inhibition kinetics against DXR (Lineweaver-Burk plots); type: biochemical; conditions: for Ki: 2 μg/mL DXR; for Kinetics (DXP): inhibition mode with respect to DXP; for Kinetics (NADPH): inhibition mode with respect to NADPH
Procedure: Lineweaver-Burk (LB) graphical charts were obtained by plotting the reciprocal of the reaction velocity against the reciprocal of the concentration of DXP/NADPH.
For A, the mixtures contained 1 mM DXP and NADPH (final conc. 0.05 to 0.275 mM); For B, the mixtures contained 0.5 mM NADPH and DXP (final conc. 0.075 to 0.3375 mM). The incubation was performed for 10 min at 37 °C before the reaction mixtures were hydrolyzed with AP, derivatized with DNPH, and analyzed using the HPLC method.
Lineweaver–Burk plots of DXR with respect to NADPH in the absence and presence of TF (A-1),
Assay mixtures comprised 50 mM tris-HCl (pH 7.4), 5 mM
MgCl2, 2 mM VC, the theaflavins (TF: 0, 2, 10, 20 μM; the other three compounds: 0, 1, 4, or 8 μM), 1 mM DXP and 2 μg/mL DXR in a final volume of 100 μL. Then, NADPH (final conc. 0.05 to 0.275 mM) was added, and incubation was performed for 10 min at 37 °C before the reaction mixtures were hydrolyzed with AP, derivatized with DNPH, and analyzed using the HPLC method. (A-1) DXR inhibition kinetics of TF; (A-2) DXR inhibition kinetics of TF3G; (A-3) DXR inhibition kinetics of TF3’G; (A-4) DXR inhibition kinetics of
Lineweaver–Burk plots of DXR with respect to DXP in the absence and presence of TF (B-1),
MgCl2, 2 mM VC, the theaflavins (TF: 0, 5, 10, 20 μM; the other three compounds: 0, 1, 4, or 8 μM), 0.5 mM NADPH, and 2 μg/mL. DXR in a final volume of 100 μL. Then, DXP (final conc. 0.075 to 0.3375 mM) was added, and incubation proceeded for 10 min at 37 °C before the reaction mixtures were hydrolyzed with AP, derivatized with DNPH, and analyzed using the HPLC method. (B-1) DXR inhibition kinetics of TF; (B-2) DXR inhibition kinetics of TF3G; (B-3) DXR inhibition kinetics of TF3’G; (B-4) DXR inhibition kinetics of

Calf intestine AP = molecular target: T2, Calf intestine AP (Bos taurus, UniProt P19111); assay: Alkaline phosphatase (AP) inhibition assay, HPLC method; type: biochemical; conditions: 2 mM
T2 construct: purchased Takara (Dalian, China)
Procedure: The other factor that could influence the determination of inhibitory activity of the theaflavins against DXR would be the AP because we must use it to dephosphorylate DXP before DNPH derivatization. We thus measured whether VC and the theaflavins might display any inhibition against this enzyme. We find that VC has no effect on the activity of AP at 2 mM and the four theaflavins also have no inhibition against AP at all (Fig. 4), even at final concentrations as high as 500 μM.
Figure 4 Determination of inhibition of VC and the theaflavins against AP. The reaction mixtures comprise 10 μL AP buffer and 2 U AP in a final volume of 100 μL, DXP was added (final conc. 1 mM) to start the reaction. The reaction mixtures were incubated at 37 °C for 120 min and subsequently derivatized with DNPH and analyzed with the HPLC method. For VC assay, 2 mM VC was added before the addition of DXP. For assays of the theaflavins, the compounds were added separately before the addition of DXP (two concentrations, 20 and 500 μM for each compound were applied).
The HPLC method described above was also used to determine the inhibitory activity of the theaflavins against AP. The reaction mixture comprises 2 mM VC, 10 μL AP buffer and 2 U AP in a final volume of 100 μL. […] Then, the reaction mixture was derivatized with DNPH and analyzed with the HPLC method.

Plasmodium falciparum = conditions: malaria caused by Plasmodium falciparum; cited from earlier work
[5] = set-up: method as in earlier work; conditions: cited from earlier work
[6] = DXP as varied substrate, 0.5 mM NADPH, read-out: Ki (DXP)
[7] = NADPH as varied substrate, 1 mM DXP, read-out: Ki (NADPH)

T1 sequence (P45568 whole entry): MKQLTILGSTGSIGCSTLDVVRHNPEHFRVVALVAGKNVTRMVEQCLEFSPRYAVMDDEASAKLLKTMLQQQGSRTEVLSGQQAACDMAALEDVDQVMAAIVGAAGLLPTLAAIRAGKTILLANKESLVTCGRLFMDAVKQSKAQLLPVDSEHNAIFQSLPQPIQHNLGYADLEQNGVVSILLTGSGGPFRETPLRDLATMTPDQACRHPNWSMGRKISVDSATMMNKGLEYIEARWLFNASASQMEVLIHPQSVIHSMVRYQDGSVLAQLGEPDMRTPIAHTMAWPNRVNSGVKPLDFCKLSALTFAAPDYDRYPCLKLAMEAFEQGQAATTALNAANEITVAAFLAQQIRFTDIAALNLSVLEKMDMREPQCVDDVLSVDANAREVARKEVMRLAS
T2 sequence (P19111 20-533): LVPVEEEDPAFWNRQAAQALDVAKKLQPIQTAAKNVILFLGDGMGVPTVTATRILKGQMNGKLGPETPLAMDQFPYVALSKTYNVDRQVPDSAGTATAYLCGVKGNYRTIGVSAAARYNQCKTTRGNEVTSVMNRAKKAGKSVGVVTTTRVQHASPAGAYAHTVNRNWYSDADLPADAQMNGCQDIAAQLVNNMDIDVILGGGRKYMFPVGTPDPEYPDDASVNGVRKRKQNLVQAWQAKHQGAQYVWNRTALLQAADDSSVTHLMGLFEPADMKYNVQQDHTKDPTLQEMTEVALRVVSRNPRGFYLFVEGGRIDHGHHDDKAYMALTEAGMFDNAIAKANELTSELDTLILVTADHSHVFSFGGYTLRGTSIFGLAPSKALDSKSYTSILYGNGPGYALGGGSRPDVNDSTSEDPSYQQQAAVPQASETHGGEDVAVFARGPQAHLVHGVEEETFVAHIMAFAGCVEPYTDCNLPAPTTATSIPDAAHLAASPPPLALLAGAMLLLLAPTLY

Molecule	DLS Count Rate, with 4 μg/mL DXR ([2]; 4 μg/mL DXR) [KHz]	DLS Count Rate, without DXR [2] [KHz]	Concentration after incubation in the presence of 2 mM VC [3] [µM]	Concentration after incubation in the absence of 2 mM VC [3] [µM]	Ki (E. coli DXR [4]; [6]) [µM]	Ki (E. coli DXR [4]; [7]) [µM]	Kinetics (DXP) (E. coli DXR [4])	Kinetics (NADPH) (E. coli DXR [4])	Inhibition (%) Triton, lower concentration (E. coli DXR [1]) [%]	Inhibition (%) Triton, higher concentration (E. coli DXR [1]) [%]	IC50 (E. coli DXR [1]; 2% DMSO) [µM]	Inhibition (%) No Triton, lower concentration (E. coli DXR [1]) [%]	Inhibition (%) No Triton, higher concentration (E. coli DXR [1]) [%]	further results
Triton X-100	–	–	–	–	–	–	–	–	–	–	–	–	–	Effect on the activity of DXR (E. coli DXR [1]; 0.1%): no effect
O=c1cc(-c2ccccc2)oc2cc(O)c(O)c(O)c12 [Baicalein, baicalein, reference compound]	296 ± 19.7	2.6 ± 0.5	–	–	–	–	–	–	–	–	–	–	–	DLS Size, with 4 μg/mL DXR ([2]; 4 μg/mL DXR, baicalein 200 μM): 429.2 ± 84.7 nm; inhibition at 100 µM (E. coli DXR [1]; read-out: Inhibition (%) No Triton, higher concentration): 63.5 ± 2.9%; inhibition at 50 µM (E. coli DXR [1]; read-out: Inhibition (%) No Triton, lower concentration): 37.6 ± 4.7%; inhibition at 100 µM (E. coli DXR [1]; read-out: Inhibition (%) Triton, higher concentration): 6.5 ± 4.6%; inhibition at 50 µM (E. coli DXR [1]; read-out: Inhibition (%) Triton, lower concentration): 5.1 ± 3.9%
O=C(O[C@@H]1Cc2c(O)cc(O)cc2O[C@@H]1c1cc(O)c(O)c2c(=O)c(O)cc([C@H]3Oc4cc(O)cc(O)c4C[C@H]3O)cc12)c1cc(O)c(O)c(O)c1 [TF3G]	4.6 ± 0.5	2.6 ± 0.5	98.15 ± 2.86	60.88 ± 2.77	30.2 ± 2.6	24.7 ± 3.2	Noncompetitive	Uncompetitive	52.7 ± 2.4	67.9 ± 3.4	29.2 ± 2.6	52.6 ± 3.2	69.6 ± 2.7	–
O=C1O[C@H]([C@@H](O)CO)C(O)=C1O [VC, ascorbic acid]	–	–	–	–	–	–	–	–	–	–	–	–	–	Effect on the activity of AP (Calf intestine AP): no effect; Effect on the activity of DXR (E. coli DXR [1]; 2 mM): no effect
O=CN(O)CCCP(=O)(O)O [Fosmidomycin, fosmidomycin]	–	–	–	–	–	–	–	–	–	–	–	–	–	Efficacy in treating malaria (clinical data) (Plasmodium falciparum): somewhat effective; Inhibition of DXR activity (positive control) (E. coli DXR [1]; 1.0 μM): complete inhibition; Bioavailability [5]: poor; Plasma half-life [5]: ~ 1 h
O=c1c(O)cc([C@H]2Oc3cc(O)cc(O)c3C[C@H]2O)cc2c([C@H]3Oc4cc(O)cc(O)c4C[C@H]3O)cc(O)c(O)c12 [TF, theaflavin]	5.8 ± 0.4	2.2 ± 0.4	98.97 ± 3.27	63.01 ± 3.73	107 ± 3.9	83.1 ± 4.3	Noncompetitive	Uncompetitive	43.9 ± 3.6	62.2 ± 2.9	162 ± 3.6	45.3 ± 3.4	63.1 ± 2.4	Inhibition against DXR at a single concentration (E. coli DXR [1]; approximately 150 μM, 2% DMSO, VC): approximately 40%
O=C(O[C@@H]1Cc2c(O)cc(O)cc2O[C@@H]1c1cc(O)c(=O)c2c(O)c(O)cc([C@H]3Oc4cc(O)cc(O)c4C[C@H]3OC(=O)c3cc(O)c(O)c(O)c3)c2c1)c1cc(O)c(O)c(O)c1 [TF3,3′G, theaflavin-3,3′-digallate]	4.8 ± 0.4	2.2 ± 0.4	96.72 ± 2.78	55.26 ± 4.32	–	–	–	–	–	–	–	–	–	–
O=C(O[C@@H]1Cc2c(O)cc(O)cc2O[C@@H]1c1cc(O)c(=O)c2c(O)c(O)cc([C@H]3Oc4cc(O)cc(O)c4C[C@H]3O)c2c1)c1cc(O)c(O)c(O)c1 [TF3′G, theaflavin-3′-gallate]	5.2 ± 0.4	1.4 ± 0.5	98.08 ± 3.02	61.17 ± 4.29	22.2 ± 3.1	22.4 ± 2.1	Noncompetitive	Uncompetitive	42.5 ± 3.3	70.7 ± 3.3	23.7 ± 2.9	41.3 ± 2.9	70.3 ± 3.4	–
